# pEC50, pIC50: −log10 of the molar value. Read-outs that look alike come from different tables or passages of the source.
# Key:
# L-type Ca^2+ channels = conditions: read-out: IC50 for block of L-type Ca^2+ channels; cited from earlier work
# Text: (§1) There are a variety of valuable pharmacological tools available to study the contribution of specific IK channels to the mechanism of endothelium-dependent dilation in isolated vessels and to blood pressure control in vivo. IK channel modulators mainly comprise small organic compounds and venom-derived peptides. These different classes of chemicals modulate the channel by binding to either the external or the internal face of the ion-conducting pore. Among the different ion modulators, venom-derived peptides usually block their targets with high affinity, that is, with IC50 in the […] ...
# hIK1 [1] = molecular target: T1, hIK1 (Homo sapiens, UniProt O15554); conditions: hIK1 cell line; read-out: EC50 for hIK1 activation; cited from earlier work
# T1 construct: expressed in transfected cells; host or cells: HEK293T cells, transient transfection with Lipofectamine 2000
# Text: The intermediate-conductance Ca^2+-activated K^+ (IK) channels belong to the gene family of calcium/calmodulin-regulated and voltage-independent K^+ channels (SK1/SK2/SK3 and IK) and contribute to cellular functions by producing membrane hyperpolarization, thus regulating intracellular Ca^2+ signaling. IK channels are gated solely by internal Ca^2+, with a unit conductance of 20–85 pS. Expression of hIK1 in HEK293T cells gives rise to inwardly rectifying K^+ currents, which are activated by submicromolar concentrations of intracellular Ca^2+ (EC50 = 0.3 μM). […] After the application of 80 μM HNTX-I, NS309 still activated the current about 1.5-fold (Figure 3A). […] After the initial equilibration period, HNTX-I was added at 80 μM to yield a higher current within ~3 min. Then, 100 nM NS309 was applied and reached the peak in under 1 min. Thus, the p ...
# [2] = test system: cardiac hERG K^+ channels; conditions: micromolar concentrations; cited from earlier work
# Text: as §1
# hIK1 [3] = molecular target: T1, hIK1; assay type: cell-based; conditions: for enhancement of the amplitude of IK currents: 0.3 μM free Ca^2+ in pipette, voltage ramps
# hERG K^+ channel = conditions: 100 μM
# para/tipE = conditions: Xenopus laevis oocytes; ref previous works; cited from earlier work
# mice = test: acute in vivo toxicity in mice; set-up: species or system mouse
# Description: (§2) Five mice (17–19 g) were injected intravenously with multiple […] doses of 0.5–2.5 mg/kg HNTX-I (in mammalian Ringer solution with 1% ethanol and 2.5% BSA). Five control mice were injected with an equal volume of the vehicle. The toxicity of HNTX-I was qualitatively assayed by intra-abdominal injection into adult male cockroaches (Periplaneta) with body weights of 0.8–1.2 g at doses of 50–250 μg/g using 10-μL solutions (in 0.85% (w/v) normal saline).
# [4] = test system: mouse phrenic nerve-diaphragm preparations; test: phrenic nerve-diaphragm twitch-tension (phrenic nerve conduction block)
# Description: The twitch-tension experiments were performed using mouse phrenic nerve-diaphragm preparations. Adult Kunming albino mice (18–22 g of either gender) were killed by cervical dislocation. After dissection, the preparations were placed in a Plexiglas chamber immersed in Tyrode’s solution or toxin solutions continuously bubbled with 95% O2, 5% CO2 and maintained at 30–32 °C. The electrical stimulation was applied indirectly to the phrenic nerve with a suction electrode at 0.2 Hz with pulses of 0.2 ms in duration and supramaximally. For direct stimulation, the muscle was stimulated at a frequency of 0.2 Hz (supramaximal, 2 ms, square wave). A mechanical-electric transducer made of a semiconductor strain gauge was used to transform the twitch responses into electric signals. […] The time from the application of HNTX-I to complete blocking of neuromuscular transmission was defined as blocking time, and the concentrations of HNTX-I we used were 1 μM, 10 μM and 100 μM.
# [5] = test system: voltage-gated L-type Ca^2+ channels; test: L-type Ca^2+ channels from DRG, whole-cell patch-clamp; assay type: cell-based; conditions: 100 μM; rat DRG; n = 5
# [6] = test system: tetrodotoxin-resistant (TTX-R) Na^+ channels; conditions: cited from earlier work
# [7] = test system: voltage-gated Ca^2+ channels; test: voltage-gated Ca^2+ channels, summary of screening; assay type: cell-based, rat; conditions: 100 μM
# [8] = test system: VGSCs in cardiac or skeletal muscles; conditions: mammals; ref previous works; cited from earlier work
# neuronal TTX-S VGSCs = conditions: adult rat dorsal root ganglion neurons; ref previous works (ref 9); cited from earlier work
# [9] = test system: voltage-gated Na^+ channels; test: voltage-gated Na^+ channels, summary of screening; assay type: cell-based, rat; conditions: 100 μM
# [10] = test system: American cockroach (Periplaneta americana); test: acute in vivo toxicity in American cockroach; conditions: intra-abdominal injection, 50–250 μg/g; adult male; 7 days
# Description: as §2
# BK channels = test: BK channel current in HEK293T cells, whole-cell patch-clamp; assay type: cell-based; conditions: 100 μM, n = 5
# [11] = test system: voltage-gated T-type Ca^2+ channels; test: T-type Ca^2+ channels from DRG, whole-cell patch-clamp; assay type: cell-based; conditions: 100 μM; rat DRG; n = 5
# rNav1.2/β1 = conditions: Xenopus laevis oocytes; ref previous works; cited from earlier work
# VGSCs = conditions: ref previous work; cited from earlier work
# Text: In general, hydrophobic and polar residue hot spots are important binding determinants in toxins and ion channel interactions. […] HNTX-I should therefore present a similar type of interacting surface as other toxins whose binding sites are at the outer membrane. In our previous work, we have shown that such a basic profile ...
# [12] = intravenous, 0.5–2.5 mg/kg, seven days
# T1 sequence (O15554 whole entry): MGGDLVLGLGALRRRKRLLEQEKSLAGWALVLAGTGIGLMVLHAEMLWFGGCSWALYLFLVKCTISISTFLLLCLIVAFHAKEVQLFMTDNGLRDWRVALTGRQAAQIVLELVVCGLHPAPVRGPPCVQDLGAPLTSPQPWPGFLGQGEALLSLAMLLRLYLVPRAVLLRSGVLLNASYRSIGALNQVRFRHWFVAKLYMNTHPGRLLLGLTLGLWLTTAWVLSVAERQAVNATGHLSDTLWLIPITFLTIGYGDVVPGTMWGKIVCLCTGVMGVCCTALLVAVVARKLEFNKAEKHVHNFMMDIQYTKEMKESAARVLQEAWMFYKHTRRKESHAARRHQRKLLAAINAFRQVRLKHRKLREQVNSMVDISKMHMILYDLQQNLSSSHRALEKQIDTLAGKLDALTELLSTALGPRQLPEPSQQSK
compound,measurement,setting,value
"CCn1c(=O)[nH]c2cc(Cl)c(Cl)cc21 [DC-EBIO, 5,6-dichloro-1-ethyl-1,3-dihydro-2H-benzimidazole-2-one]",pIC50,L-type Ca^2+ channels,4.15
"O=C1Nc2c(ccc(Cl)c2Cl)C1=NO [NS309, 3-oxime-6,7-dichloro-1H-indole-2,3-dione, reference compound]",pEC50,hIK1 [1],7.52
same,pIC50,L-type Ca^2+ channels,5.00
same,inhibition of cardiac hERG K^+ channels,[2],inhibits
same,activation of hIK1 channels in the presence of HNTX-I,"hIK1 [3]; 100 nM NS309, 80 μM HNTX-I",activated hIK1 channels
same,activation of current after HNTX-I (fold),hIK1 [3]; 100 nM NS309 after application of 80 μM HNTX-I,about 1.5 fold
same,influence of HNTX-I on potency and kinetics of NS309,hIK1 [3]; 100 nM NS309 in the presence of 80 μM HNTX-I,not notably influenced by HNTX-I
same,time to peak of NS309 activation,"hIK1 [3]; 100 nM NS309 in the presence of 80 μM HNTX-I, n = 5",under 1 min
Hainantoxin-I [HNTX-I],sensitivity of hERG K^+ channels,hERG K^+ channel,insensitive
same,effect on hERG K^+ channel,"hERG K^+ channel; HEK293T cells, n = 5",no effect
same,block of para/tipE,para/tipE,selectively blocks
same,clinical appearance,"mice; intravenous, 0.5, 1.0, 1.5, 2.0 and 2.5 mg/kg, five mice per dose, seven-day study",appeared clinically normal
same,aggressive/defensive responses,mice; [12],no aggressive/defensive responses were elicited
same,death,mice; [12],did not cause death at any concentration
same,depilation of pelage,mice; [12],not depilated
same,inhibition of nerve-evoked twitch tension,"[4]; 1 μM, Tyrode's solution, 30–32 °C",did not inhibit the nerve-evoked twitch tension
same,influence on neuromuscular transmission,[4]; 100 μM or lower,did not influence the neuromuscular transmission
same,blockade of twitch responses,"[4]; 10 and 100 μM, within 4 h, n = 5",no apparent blockades in the twitch responses
same,effect on L-type Ca^2+ channels,[5],no effect
same,effect on TTX-R Na^+ channels,[6],no effect
same,sensitivity of voltage-gated Ca^2+ channels,[7],insensitive
same,effect on VGSCs in cardiac or skeletal muscles,[8],nor does it target VGSCs
same,effect on neuronal TTX-S VGSCs,neuronal TTX-S VGSCs,no effect
same,sensitivity of voltage-gated Na^+ channels,[9],insensitive
same,enhancement of the amplitude of IK currents,"hIK1 [3]; 40 μM HNTX-I, n = 5",33.2% ± 0.5
same,reversibility / dose-dependency on hIK1,hIK1 [3]; 80 μM HNTX-I,"clearly demonstrated the dose-dependency, as well as reversible nature"
same,time to yield higher current,"hIK1 [3]; 80 μM HNTX-I, after initial equilibration, before NS309",~ 3 min
same,enhancement of the amplitude of IK currents,"hIK1 [3]; 80 μM HNTX-I, n = 5",97% ± 0.7
same,Imax,"hIK1 [3]; 80 μM HNTX-I, current shortly before application = 100%",197%
same,Imax at higher concentration,"hIK1 [3]; 200 μM HNTX-I, compared with 80 μM",did not change
same,time to reach higher current level,"hIK1 [3]; after 40 μM HNTX-I applied, n = 5",~ 3 min
same,return of current to baseline upon washing,"hIK1 [3]; washing after 40 μM HNTX-I, n = 5",the current returned to baseline with approximately the same time characteristics
same,symptoms of poisoning,[10],did not produce symptoms of poisoning
same,effect on BK channels,BK channels,no effect
same,effect on T-type Ca^2+ channels,[11],no effect
same,block of rNav1.2/β1,rNav1.2/β1,selectively blocks
same,inhibition of VGSCs in vertebrates and insects,VGSCs,inhibits VGSCs
